Test results taken from ChEMBL document CHEMBL3351417, “Thiophene-3-carboxamide analogue of annonaceous acetogenins as antitumor drug lead” (Eur J Med Chem, 2014).

How the values were obtained:
[1] = Growth inhibition of human HBC5 cells after 48 hrs by sulforhodamine B colorimetric assay; type: functional; conditions: HBC5, 48 h
[2] = Growth inhibition of human RXF631L cells after 48 hrs by sulforhodamine B colorimetric assay; type: functional; conditions: RXF 631, 48 h
[3] = Growth inhibition of human MKN28 cells after 48 hrs by sulforhodamine B colorimetric assay; type: functional; conditions: MKN-28, 48 h
[4] = Growth inhibition of human MKN45 cells after 48 hrs by sulforhodamine B colorimetric assay; type: functional; conditions: MKN-45, 48 h
[5] = system: MDA-MB-231; assay: Growth inhibition of human MDA-MB-231 cells after 48 hrs by sulforhodamine B colorimetric assay; type: functional; conditions: MDA-MB-231, 48 h
[6] = Growth inhibition of human DMS114 cells after 48 hrs by sulforhodamine B colorimetric assay; type: functional; conditions: DMS-114, 48 h
[7] = Growth inhibition of human SF539 cells after 48 hrs by sulforhodamine B colorimetric assay; type: functional; conditions: SF-539, 48 h
[8] = system: MCF7; assay: Growth inhibition of human MCF7 cells after 48 hrs by sulforhodamine B colorimetric assay; type: functional; conditions: MCF7, 48 h
[9] = system: KM12; assay: Growth inhibition of human KM12 cells after 48 hrs by sulforhodamine B colorimetric assay; type: functional; conditions: KM12, 48 h
[10] = system: St-4; assay: Growth inhibition of human St-4 cells after 48 hrs by sulforhodamine B colorimetric assay; type: functional; conditions: St-4, 48 h
[11] = system: NCI-H460; assay: Growth inhibition of human NCI-H460 cells after 48 hrs by sulforhodamine B colorimetric assay; type: functional; conditions: NCI-H460, 48 h
[12] = system: SK-OV-3; assay: Growth inhibition of human SKOV3 cells after 48 hrs by sulforhodamine B colorimetric assay; type: functional; conditions: SK-OV-3, 48 h
[13] = Growth inhibition of human OVCAR5 cells after 48 hrs by sulforhodamine B colorimetric assay; type: functional; conditions: OVCAR-5, 48 h
[14] = Growth inhibition of human HCC2998 cells after 48 hrs by sulforhodamine B colorimetric assay; type: functional; conditions: HCC 2998, 48 h
[15] = system: SF-268; assay: Growth inhibition of human SF268 cells after 48 hrs by sulforhodamine B colorimetric assay; type: functional; conditions: SF-268, 48 h
[16] = Growth inhibition of human SF295 cells after 48 hrs by sulforhodamine B colorimetric assay; type: functional; conditions: SF-295, 48 h
[17] = system: A549; assay: Growth inhibition of human A549 cells after 48 hrs by sulforhodamine B colorimetric assay; type: functional; conditions: A549, 48 h
[18] = system: NCI-H226; assay: Growth inhibition of human NCI-H226 cells after 48 hrs by sulforhodamine B colorimetric assay; type: functional; conditions: NCI-H226, 48 h
[19] = Growth inhibition of human LOXIMVI cells after 48 hrs by sulforhodamine B colorimetric assay; type: functional; conditions: LOX IMVI
[20] = Growth inhibition of human OVCAR4 cells after 48 hrs by sulforhodamine B colorimetric assay; type: functional; conditions: OVCAR-4, 48 h
[21] = Growth inhibition of human DMS273 cells after 48 hrs by sulforhodamine B colorimetric assay; type: functional; conditions: DMS-273, 48 h
[22] = Growth inhibition of human MKN74 cells after 48 hrs by sulforhodamine B colorimetric assay; type: functional; conditions: MKN-74, 48 h
[23] = Growth inhibition of human MKN1 cells after 48 hrs by sulforhodamine B colorimetric assay; type: functional; conditions: MKN-1, 48 h
[24] = Growth inhibition of human BSY1 cells after 48 hrs by sulforhodamine B colorimetric assay; type: functional; conditions: BSY-1, 48 h
[25] = Growth inhibition of human PC3 cells after 48 hrs by sulforhodamine B colorimetric assay; type: functional; conditions: PC-3, 48 h
[26] = Growth inhibition of human OVCAR8 cells after 48 hrs by sulforhodamine B colorimetric assay; type: functional; conditions: OVCAR-8, 48 h
[27] = Growth inhibition of human HBC4 cells after 48 hrs by sulforhodamine B colorimetric assay; type: functional; conditions: HBC4, 48 h
[28] = Growth inhibition of human MKN7 cells after 48 hrs by sulforhodamine B colorimetric assay; type: functional; conditions: MKN-7, 48 h
[29] = system: ACHN; assay: Growth inhibition of human ACHN cells after 48 hrs by sulforhodamine B colorimetric assay; type: functional
[30] = Growth inhibition of human OVCAR3 cells after 48 hrs by sulforhodamine B colorimetric assay; type: functional; conditions: OVCAR-3, 48 h
[31] = Growth inhibition of human HCT15 cells after 48 hrs by sulforhodamine B colorimetric assay; type: functional; conditions: HCT-15, 48 h
[32] = system: DU-145; assay: Growth inhibition of human DU145 cells after 48 hrs by sulforhodamine B colorimetric assay; type: functional; conditions: DU-145, 48 h
[33] = system: NCI-H23; assay: Growth inhibition of human NCI-H23 cells after 48 hrs by sulforhodamine B colorimetric assay; type: functional; conditions: NCI-H23, 48 h
[34] = Growth inhibition of human HCT116 cells after 48 hrs by sulforhodamine B colorimetric assay; type: functional; conditions: HCT-116, 48 h
[35] = system: NCI-H522; assay: Growth inhibition of human NCI-H522 cells after 48 hrs by sulforhodamine B colorimetric assay; type: functional; conditions: NCI-H522, 48 h
[36] = Growth inhibition of human SNB78 cells after 48 hrs by sulforhodamine B colorimetric assay; type: functional; conditions: SNB-78, 48 h
[37] = system: U-251; assay: Growth inhibition of human U251 cells after 48 hrs by sulforhodamine B colorimetric assay; type: functional; conditions: U-251, 48 h
[38] = system: HT-29; assay: Growth inhibition of human HT-29 cells after 48 hrs by sulforhodamine B colorimetric assay; type: functional; conditions: HT-29, 48 h
[39] = system: SNB-75; assay: Growth inhibition of human SNB75 cells after 48 hrs by sulforhodamine B colorimetric assay; type: functional; conditions: SNB-75, 48 h
[40] = Toxicity in human NCI-H23 cells xenografted in mouse ip dosed on day 0 and day; type: organism-based; conditions: in vivo

CCCCCCCCCCCC[C@@H](O)[C@H]1CC[C@H]([C@H](O)CCCCCCCCCCNC(=O)c2cncs2)O1
GI50 [1]: > 100 µM | GI50 [2]: > 100 µM | GI50 [3]: 0.832 µM | GI50 [4]: > 100 µM | GI50 [5]: > 100 µM | GI50 [6]: 0.219 µM | GI50 [7]: 50.1 µM | GI50 [8]: > 100 µM | GI50 [9]: > 100 µM | GI50 [10]: > 100 µM | GI50 [11]: 34.7 µM | GI50 [12]: > 100 µM | GI50 [13]: > 100 µM | GI50 [14]: > 100 µM | GI50 [15]: > 100 µM | GI50 [16]: 43.7 µM | GI50 [17]: 34.7 µM | GI50 [18]: > 100 µM | GI50 [19]: > 100 µM | GI50 [20]: > 100 µM | GI50 [21]: 19.1 µM | GI50 [22]: 61.7 µM | GI50 [23]: > 100 µM | GI50 [24]: 3.98 µM | GI50 [25]: > 100 µM | GI50 [26]: > 100 µM | GI50 [27]: > 100 µM | GI50 [28]: 0.617 µM | GI50 [29]: > 100 µM | GI50 [30]: > 100 µM | GI50 [31]: > 100 µM | GI50 [32]: > 100 µM | GI50 [33]: 4.79 µM | GI50 [34]: 12.9 µM | GI50 [35]: 19.1 µM | GI50 [36]: > 100 µM | GI50 [37]: > 100 µM | GI50 [38]: > 100 µM | GI50 [39]: > 100 µM

CCCCCCCCCCCC[C@@H](O)[C@H]1CC[C@H]([C@H](O)CCCCCCCCCCNC(=O)c2ccnn2C)O1
GI50 [2]: > 100 µM | GI50 [9]: > 100 µM | GI50 [12]: > 100 µM | GI50 [13]: > 100 µM | GI50 [14]: > 100 µM | GI50 [15]: > 100 µM | GI50 [16]: 10 µM | GI50 [27]: > 100 µM | GI50 [31]: > 100 µM | GI50 [32]: > 100 µM | MTD [40]: 5 mg/kg | GI50 [36]: > 100 µM | GI50 [37]: > 100 µM | GI50 [38]: > 100 µM | GI50 [39]: 50.1 µM

CCCCCCCCCCCC[C@@H](O)[C@H]1CC[C@H]([C@H](O)CCCCCCCCCCNC(=O)c2ccoc2)O1
GI50 [1]: > 100 µM | GI50 [2]: > 100 µM | GI50 [3]: 0.55 µM | GI50 [4]: > 100 µM | GI50 [5]: > 100 µM | GI50 [6]: 0.191 µM | GI50 [7]: > 100 µM | GI50 [8]: 26.9 µM | GI50 [9]: > 100 µM | GI50 [10]: 97.7 µM | GI50 [11]: > 100 µM | GI50 [12]: > 100 µM | GI50 [13]: > 100 µM | GI50 [14]: 79.4 µM | GI50 [15]: > 100 µM | GI50 [16]: > 100 µM | GI50 [17]: > 100 µM | GI50 [18]: > 100 µM | GI50 [19]: 21.9 µM | GI50 [20]: 74.1 µM | GI50 [21]: > 100 µM | GI50 [22]: 21.9 µM | GI50 [23]: > 100 µM | GI50 [24]: 2.19 µM | GI50 [25]: 52.5 µM | GI50 [26]: 66.1 µM | GI50 [27]: > 100 µM | GI50 [28]: 0.372 µM | GI50 [29]: > 100 µM | GI50 [30]: > 100 µM | GI50 [31]: > 100 µM | GI50 [32]: > 100 µM | GI50 [33]: 3.02 µM | GI50 [34]: 3.47 µM | GI50 [35]: 10 µM | GI50 [36]: > 100 µM | GI50 [37]: > 100 µM | GI50 [38]: > 100 µM | GI50 [39]: > 100 µM
